From patent publication US20250127759A1, “METHODS AND DOSING REGIMENS COMPRISING A CDK2 INHIBITOR FOR THE TREATMENT OF CANCER” (PFIZER INC., priority 2021, published 2025) come the findings set out here.

Marks after values point to notes of the source that are not given here.

The test system of one data set is NCI-H526 SCLC cells. Briefly: Proliferation inhibition, NCI-H526. Type of data set: cell-based. Conditions: Homo sapiens, 168 h, treated for 7 days. Here is the method: (§1) Anti-proliferative activity was measured in cells treated for 7 days with PF-07104091 in OVCAR3 cells, Rb mutant NCI-H526 SCLC cells, and both HR-positive HER2-negative MCF7 and the subline MCF7-PalboR (resistant to palbociclib).

The next data set has as its system T47D. Briefly: In vivo efficacy, T47D breast cancer model. Conditions: Day 41, 150 mg/kg BID PO. Also on record: species or system mice. Here is the method: The T47D model was established by implanting passage 3 tumor fragments into recipient mice. To establish the T47D donor mice, tumor cells (5×10^6 cell/mouse with 50% Cultrex® Basement Membrane Matrix) were subcutaneously implanted in female NSG mice. […] All mice received treatment continuously until Day 41. TGI was assessed on Day 41 post first dose.

The test system of a further data set is T-47D Cells. Briefly: Combination cell proliferation assay, T47D. It is filed as cell-based, human. As for the experimental part:
(§2) The combination effects of PF-07104091 with palbociclib were evaluated in a cell proliferation assay with MCF7 and T47D BC cell lines. […] Drug combinations were analyzed using the Dose Equivalence Principle, and the Loewe Volume score. When modeling synergy using the Dose Equivalence Principle, the Loewe Volume score for the combination compounds should be greater than the compound self-cross controls, and the Combination Index score for the combination compounds should be less than compound self-cross controls. […] Furthermore, the isobolograms set to an anti-proliferation threshold at 70% confirm a synergistic response.

Data set [1] has as its system MCF7 cells. In words: Cell cycle distribution and DNA synthesis, MCF7. Conditions: 72-hour treatment with 300 nM. It is filed as cell-based. Here is the method:
The effect of PF-07104091 on cell cycle distribution and DNA synthesis was determined following 72-hour treatment with 300 nM PF-07104091.

The test system of data set [2] is MCF7 Cells. Briefly: Combination cell proliferation assay, MCF7. Type of data set: cell-based, human. As for the experimental part:
as §2

The nature of data set [3]: In vivo efficacy, OVCAR3 ovarian cancer tumor model. Conditions: female, mouse, NSG mice, po, BID, read-out: maximum tolerated dose level. As for the experimental part:
Female NSG (Jackson Lab) or Nu/nu (CRL) were subcutaneously implanted with tumor cells or fragments (8 mm^3 to 27 mm^3) into the dorsal region. For the MCF7 study, mice were supplemented with estrogen (sc implanted, 17β-estradiol, 0.36 mg, 90-day release pellet, Innovative Research of America, cat no. NE-121).
To establish the OVCAR3 model, tumor cells (5×10^6 cells/mouse with 50% Cultrex® Basement Membrane Matrix) were subcutaneously implanted in female NSG mice. […] PF-07104091 was administered (p.o.) BID (7 hr apart). All mice received treatment continuously for 21 days. TGI was assessed on Day 21 post first dose (or Day 66 post tumor cell implant).

For data set [4], the system named is MCF7 cells. Briefly: Proliferation inhibition, MCF7. Conditions: Homo sapiens, 168 h, treated for 7 days. Type of data set: cell-based. Here is the method: as §1
For a further data set, the system named is OVCAR3 cells. In words: Proliferation inhibition, OVCAR3. It is filed as cell-based. Conditions: Homo sapiens, OVCAR-3, 168 h, treated for 7 days. As for the experimental part: as §1

As to `COCc1cc(C(=O)Nc2cc([C@H]3CC[C@@H](OC(=O)NC(C)C)C3)[nH]n2)n(C)n1` [PF-07104091, (1R,3S)-3-[3-({[3-(methoxymethyl)-1-methyl-1H-pyrazol-5-yl]carbonyl}amino)-1H-pyrazol-5-yl]cyclopentyl propan-2-ylcarbamate], the results for the IC50 with NCI-H526 SCLC cells, in the data set with MCF7 cells [4] and with OVCAR3 cells were 136 nM, 252 nM and 118 nM, respectively. Besides, in the data set with T47D, the TGI % was 82* %. Moreover, the “Loewe Volume” value is given as 0.01 in the data set on T-47D Cells and −0.08 with MCF7 Cells [2]. The “Best CI” value came out at 0.95 in the data set on T-47D Cells (Best CI Level 70) and 1.04 with MCF7 Cells [2] (Best CI Level 70). Also, in the data set with MCF7 cells [1], the cell cycle arrest entry is “significant G2/M arrest”. For the same compound, the “S phase (cell cycle distribution)” value with MCF7 cells [1] (p≤0.05 versus vehicle) was “Significant S phase reduction”. Further, the MTD at 21 days in data set [3] worked out at 175 mg/kg.
